# Measured values: patent US7045532B2 (Millennium Pharmaceuticals, Inc., priority 1999, dated 2006)
# Where two headings read alike, the source gives them in different places.
# Legend:
# Carboxypeptidase A = target: T1, Carboxypeptidase A (Bos taurus, UniProt P00730); assay: Carboxypeptidase A activity assay; assay type: biochemical; conditions: Ki class, compounds tested in 5% DMSO
# T1 sequence (P00730 111-419): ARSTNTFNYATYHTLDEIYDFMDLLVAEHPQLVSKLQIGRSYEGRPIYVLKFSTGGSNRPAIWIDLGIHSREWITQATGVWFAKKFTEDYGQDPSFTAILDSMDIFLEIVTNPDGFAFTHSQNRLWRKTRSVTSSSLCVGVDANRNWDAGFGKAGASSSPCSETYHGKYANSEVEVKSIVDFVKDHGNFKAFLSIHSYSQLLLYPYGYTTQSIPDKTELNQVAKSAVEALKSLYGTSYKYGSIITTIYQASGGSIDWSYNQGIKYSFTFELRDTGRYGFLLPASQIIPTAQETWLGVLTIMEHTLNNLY
# Method in brief: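 Bovine carboxypeptidase A activity followed at 328 nm in 5% DMSO, reaction stopped with EDTA. Activity measured at 12 compound concentrations. Ki derived from apparent Ki as Ki=Kiapp/(1+[S]/Km).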
# ACE-2 = target: T2, ACE-2 (Homo sapiens, UniProt Q9BYF1); assay: ACE-2 Competitive Substrate Assay (ACS Assay); assay type: biochemical
# T2 construct: a stop codon inserted after the serine immediately preceding the transmembrane domain; made in house; host or cells: CHO K1 cells (transient transfection, purified from conditioned medium)
# T2 sequence (Q9BYF1 18-740 limits assumed): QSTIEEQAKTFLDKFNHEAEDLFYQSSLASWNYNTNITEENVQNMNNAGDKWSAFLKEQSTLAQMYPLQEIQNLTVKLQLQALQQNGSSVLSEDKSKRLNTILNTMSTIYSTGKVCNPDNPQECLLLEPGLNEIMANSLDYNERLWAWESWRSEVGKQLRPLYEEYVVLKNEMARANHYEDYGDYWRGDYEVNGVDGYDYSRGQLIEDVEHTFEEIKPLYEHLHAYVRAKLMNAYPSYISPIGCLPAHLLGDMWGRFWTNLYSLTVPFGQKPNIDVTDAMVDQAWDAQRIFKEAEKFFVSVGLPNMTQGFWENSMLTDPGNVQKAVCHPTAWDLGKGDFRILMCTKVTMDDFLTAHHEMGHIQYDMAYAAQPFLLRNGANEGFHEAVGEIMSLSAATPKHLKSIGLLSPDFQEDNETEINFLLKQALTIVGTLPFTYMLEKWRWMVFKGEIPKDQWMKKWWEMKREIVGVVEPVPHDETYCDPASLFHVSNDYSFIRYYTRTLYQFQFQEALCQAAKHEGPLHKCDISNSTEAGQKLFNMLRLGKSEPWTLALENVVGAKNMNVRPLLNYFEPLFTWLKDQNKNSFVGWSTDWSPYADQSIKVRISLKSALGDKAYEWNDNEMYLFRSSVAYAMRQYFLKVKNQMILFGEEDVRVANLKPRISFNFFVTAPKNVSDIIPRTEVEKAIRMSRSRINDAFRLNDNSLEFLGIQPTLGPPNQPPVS
# ACE (Sigma, A2580) = target: T3, ACE (Sigma, A2580) (Sus scrofa, UniProt F1RRW5); assay: ACE enzymatic activity assay; assay type: biochemical, porcine; conditions: Ki class, compounds tested in 5% DMSO
# T3 construct: ACE from porcine kidney; purchased Sigma A2580; host or cells: porcine kidney
# T3 sequence (F1RRW5 34-1309): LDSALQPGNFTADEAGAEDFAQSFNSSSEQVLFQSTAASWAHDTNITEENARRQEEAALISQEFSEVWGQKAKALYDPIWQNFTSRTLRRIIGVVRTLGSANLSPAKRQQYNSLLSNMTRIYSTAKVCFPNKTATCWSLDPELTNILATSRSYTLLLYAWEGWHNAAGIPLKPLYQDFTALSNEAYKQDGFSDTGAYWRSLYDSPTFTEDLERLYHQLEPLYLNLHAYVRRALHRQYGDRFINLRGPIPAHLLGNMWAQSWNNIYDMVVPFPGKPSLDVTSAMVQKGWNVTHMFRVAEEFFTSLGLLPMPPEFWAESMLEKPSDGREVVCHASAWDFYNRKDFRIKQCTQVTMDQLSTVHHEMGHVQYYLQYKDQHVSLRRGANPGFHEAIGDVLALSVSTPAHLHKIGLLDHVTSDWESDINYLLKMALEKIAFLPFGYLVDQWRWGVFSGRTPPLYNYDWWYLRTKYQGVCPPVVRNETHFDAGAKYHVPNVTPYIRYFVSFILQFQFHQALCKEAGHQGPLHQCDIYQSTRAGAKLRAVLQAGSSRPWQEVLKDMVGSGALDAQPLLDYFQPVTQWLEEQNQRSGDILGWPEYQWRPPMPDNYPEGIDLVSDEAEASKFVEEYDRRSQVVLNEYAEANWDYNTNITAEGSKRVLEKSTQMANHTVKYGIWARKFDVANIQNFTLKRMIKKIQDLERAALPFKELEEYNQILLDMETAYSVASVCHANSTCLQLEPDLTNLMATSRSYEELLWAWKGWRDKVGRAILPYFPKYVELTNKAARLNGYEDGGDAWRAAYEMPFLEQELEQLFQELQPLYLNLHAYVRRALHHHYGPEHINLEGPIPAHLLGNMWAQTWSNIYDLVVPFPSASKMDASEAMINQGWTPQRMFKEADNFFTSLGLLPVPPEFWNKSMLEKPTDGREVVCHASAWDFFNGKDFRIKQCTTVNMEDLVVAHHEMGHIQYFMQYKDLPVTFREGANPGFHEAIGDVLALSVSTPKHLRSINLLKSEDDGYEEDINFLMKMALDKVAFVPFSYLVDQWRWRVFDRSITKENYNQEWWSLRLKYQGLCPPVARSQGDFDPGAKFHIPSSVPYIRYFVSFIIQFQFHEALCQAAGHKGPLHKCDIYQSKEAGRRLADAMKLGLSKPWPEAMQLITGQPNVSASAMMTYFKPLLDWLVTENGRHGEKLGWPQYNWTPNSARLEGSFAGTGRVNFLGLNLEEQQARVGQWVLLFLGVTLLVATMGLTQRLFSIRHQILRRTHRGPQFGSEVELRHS
# Method in brief: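 ACE (1 nM final) in 50 mM HEPES, 300 mM NaCl, 0.01% Brij-35, pH 7.5, with compound in 5% DMSO at 12 concentrations, 25 °C. Substrate cleavage run ~30 min, stopped with EDTA; fluorescence read at excitation 320 nm, emission 405 nm.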
# [1] = Ki class, compounds tested in 5% DMSO, 12 concentrations, read-out: Human ACE-2 Activity
SMILES,Ki (Carboxypeptidase A; 12 concentrations),Ki (ACE-2; [1]),"Ki (ACE (Sigma, A2580); 12 concentrations)",Ki (Carboxypeptidase A; 12 compound concentrations),"Ki (ACE-2; Ki class, compounds tested in 5% DMSO, 12 compound concentrations, Ki=Kiapp/(1+[S]/Km), read-out: Human ACE-2 Activity)","Ki (ACE-2; Table 3, very good ACE-2 inhibiting compounds, species not given, read-out: ACE-2 Activity, Ki)","Ki (ACE (Sigma, A2580); 12 compound concentrations)"
"CC(C)CC(N[C@@H](Cc1cncn1Cc1ccc(C(C)(C)C)cc1)C(=O)O)C(=O)O (single isomer, unassigned) [HY, 2-[2-[3-(4-tert-Butyl-benzyl)-3H-imidazol-4-yl]-1-carboxy-ethylamino)-4-methyl-pentanoic acid]",,,,< 10 µM,< 0.1 µM,0.05 to 0.1 µM,< 10 µM
"CCC(N[C@@H](CCSC)C(=O)O)C(=O)O (stereo partly shown) [Z, 2-(1-Carboxy-propylamino)-4-methylsulfanyl-butyncacid]",> 50 µM,> 0.5 µM,> 50 µM,,,,
"CC(N[C@@H](Cc1c[nH]c2ccccc12)C(=O)O)C(=O)O (stereo partly shown) [AG, 2-(1-Carboxy-ethylamino)-3-(1H-indol-3-yl)-propionic acid]",> 50 µM,> 0.5 µM,> 50 µM,,,,
"CC(C)C[C@@H](N[C@H](Cc1cscn1)C(=O)O)C(=O)O [CO, 2-(1-Carboxy-2-thiazol-4-yl-ethylamino)-4-methyl-pentanoic acid]",> 50 µM,> 0.5 µM,> 50 µM,,,,
"CC(C)CC(N[C@@H](CNc1ccccc1)C(=O)O)C(=O)O (single isomer, unassigned) [FI, 2-(1-Carboxy-2-phenylamino-ethylamino)-4-methyl-pentanoic acid]",> 50 µM,> 0.5 µM,> 50 µM,,,,
"CSCC[C@H](NC(C)C(=O)O)C(=O)O (stereo partly shown) [AM, 2-(1-Carboxy-ethylamino)-4-methylsulfanyl-butync acid]",> 50 µM,> 0.5 µM,> 50 µM,,,,
"CC(C)CC(NCCc1c[nH]cn1)C(=O)O (stereo not shown) [DZ, 2-[2-(1H-imidazol-4-yl)-ethylamino]-4-methyl-pentanoic acid]",> 50 µM,> 0.5 µM,> 50 µM,,,,
"C[C@H](N[C@@H](CCc1ccccc1)C(=O)O)C(=O)O [P, 2-(1-Carboxy-ethylamino)-4-phenyl-butync acid]",> 50 µM,> 0.5 µM,> 50 µM,,,,
CCC(N[C@@H](Cc1c[nH]cn1)C(=O)O)C(=O)O (stereo partly shown),> 50 µM,> 0.5 µM,> 50 µM,,,,
"O=C(O)C(CCc1ccccc1)N[C@@H](CC1CCCCC1)C(=O)O (stereo partly shown) [BG, 2-(1-Carboxy-2-cyclohexyethylamino)-4-phenyl-butync acid]",> 50 µM,> 0.5 µM,> 50 µM,,,,
"CC(C)C[C@H](NCc1ccc(C(=O)O)cc1)C(=O)O [CN, 4-[(1-Carboxy-3-methyl-butylamino)-methyl]-benzoic acid]",> 50 µM,> 0.5 µM,> 50 µM,,,,
"CC(C)CC(N[C@H](CCc1ccccc1)CC(=O)O)C(=O)O (stereo partly shown) [CI, 2-(1-Carboxymethyl-3-phenyl-propylamino)-4-methyl-pentanoic acid]",> 50 µM,> 0.5 µM,> 50 µM,,,,
"Cc1ccc(C[C@H](CC(=O)O)NC(CC(C)C)C(=O)O)cc1 (stereo partly shown) [CS, 2-[2-Carboxy-1-(4-methyl-benzyl)-ethylamino]-4-methyl-pentanoic acid]",> 50 µM,> 0.5 µM,> 50 µM,,,,
"CCC(NC(Cc1cccs1)C(=O)O)C(=O)O (stereo not shown) [AK, 2-(1-Carboxy-2-thiophen-2-yl-ethylamino)-butync acid]",> 50 µM,> 0.5 µM,> 50 µM,,,,

# The remaining lines, values ahead:
Ki (Carboxypeptidase A; 12 concentrations),Ki (ACE-2; [1]),"Ki (ACE (Sigma, A2580); 12 concentrations)",Ki (Carboxypeptidase A; 12 compound concentrations),"Ki (ACE-2; Ki class, compounds tested in 5% DMSO, 12 compound concentrations, Ki=Kiapp/(1+[S]/Km), read-out: Human ACE-2 Activity)","Ki (ACE-2; Table 3, very good ACE-2 inhibiting compounds, species not given, read-out: ACE-2 Activity, Ki)","Ki (ACE (Sigma, A2580); 12 compound concentrations)",SMILES
> 50 µM,> 0.5 µM,> 50 µM,,,,,"CC(C)C[C@H](N[C@@H](CCc1ccccc1)C(=O)O)C(=O)OC(C)(C)C [CZ, 2-(1-Carboxy-3-phenyl-propylamino)-4-methyl-pentanoic acid tert-butyl ester]"
> 50 µM,> 0.5 µM,> 50 µM,,,,,"CC(C)C[C@@H](C(=O)O)N(C)C(CCc1ccccc1)C(=O)O (stereo partly shown) [V, 2-[(1-Carboxy-3-phenyl-propyl)-methyl-amino]-4-methyl-pentanoic acid]"
10 to 50 µM,> 0.5 µM,> 50 µM,,,,,"O=C(O)C(CCc1ccccc1)N[C@@H](Cc1ccccc1)C(=O)O (stereo partly shown) [AJ, 2-(1-Carboxy-2-phenyl-ethylamino)-4-phenyl-butync acid]"
> 50 µM,> 0.5 µM,> 50 µM,,,,,"CC(C)CC(NCC(C)C(=O)O)C(=O)O (stereo not shown) [CG, 2-(2-Carboxy-propylamino)-4-methyl-pentanoic acid]"
> 50 µM,> 0.5 µM,> 50 µM,,,,,"COc1ccc(C#CC[C@H](N[C@@H](CCc2ccccc2)C(=O)O)C(=O)O)cc1 [FR, 2-(1-Carboxy-3-phenyl-propylamino)-5-(4-methoxy-phenyl)-pent-4-ynoic acid]"
> 50 µM,> 0.5 µM,> 50 µM,,,,,"CCCCCCC(N[C@H](CCc1ccccc1)C(=O)O)C(=O)O (stereo partly shown) [CH, 2-(1-Carboxy-3-phenyl-propylamino)-octanoicacid]"
> 50 µM,> 0.5 µM,> 50 µM,,,,,"C#CCC(N[C@@H](C(=O)O)c1ccccc1)C(=O)O (stereo partly shown) [BN, 2-[(Carboxy-phenyl-methyl)-amino]-pent-4-ylnoic acid]"
> 50 µM,> 0.5 µM,> 50 µM,,,,,"O=C(O)[C@H](NC1(C(=O)O)CCCCC1)c1ccccc1 [BY, 1-[(Carboxy-phenyl-methyl)-amino]-cyclohexanecarboxylic acid]"
10 to 50 µM,> 0.5 µM,> 50 µM,,,,,"CC(C)CCNC(CCc1ccccc1)C(=O)O (stereo not shown) [DR, 2-(3-Methyl-butylamino)-4-phenyl-butync acid]"
> 50 µM,> 0.5 µM,> 50 µM,,,,,"CCCC(N[C@@H](Cc1ccccc1)C(=O)O)C(=O)O (stereo partly shown) [AA, 2-(1-Carboxy-2-phenyl-ethylamino)-pentanoicacid]"
> 50 µM,> 0.5 µM,> 50 µM,,,,,"CC(NC(Cc1cccs1)C(=O)O)C(=O)O (stereo not shown) [AH, 2-(1-Carboxy-ethylamino)-3-thiophen-2-yl-propionic acid]"
> 50 µM,> 0.5 µM,> 50 µM,,,,,"O=C(O)C(CCc1ccccc1)N1CCC[C@H]1C(=O)O (stereo in doubt) [AC, 1-(1-Carboxy-3-phenyl-propyl)-pyrrolidine-2-carboxylic acid]"
> 50 µM,> 0.5 µM,> 50 µM,,,,,"CSCC[C@H](NC(CCc1ccccc1)C(=O)O)C(=O)O (stereo partly shown) [Y, 2-(1-Carboxy-3-methylsulfanyl-propylamino)-4-phenyl-butync acid]"
> 50 µM,> 0.5 µM,> 50 µM,,,,,"CC(C)CC(N[C@H](CC(=O)O)Cc1cccs1)C(=O)O (stereo partly shown) [EI, 2-(1-Carboxymethyl-2-thiophen-2-yl-ethylamino)-4-methyl-pentanoic acid]"
> 50 µM,> 0.5 µM,> 50 µM,,,,,"CC(=O)N(C(CCc1ccccc1)C(=O)O)[C@@H](CC(C)C)C(=O)O (single isomer, unassigned) [AT, 2-[Acetyl-(1-carboxy-3-phenyl-propyl)-amino]-4-methyl-pentanoic acid]"
